Laboratory results published in ChEMBL document CHEMBL3603789, “N-Lipidated Peptide Dimers: Effective Antibacterial Agents against Gram-Negative Pathogens through Lipopolysaccharide Permeabilization” (J Med Chem, 2015).
Values after ≈ are worked out from the molar mass of the structure shown. Active and inactive are the calls of the source. The rule behind the calls is not given here. Bridge positions count the residues as written; N and C are the ends. Peptide text beside a SMILES is read from it. I, II: the chains in the order shown. * marks the point of attachment. Lauroyl = CCCCCCCCCCCC(=O)*; Octanoyl = CCCCCCCC(=O)*; Hexanoyl = CCCCCC(=O)*; Butyryl = CCCC(=O)*

Assays:
Klebsiella pneumoniae [1] = assay: Antibacterial activity against Klebsiella pneumoniae DM4299 after 24 hrs by broth microdilution method; type: functional; conditions: DM4299, 24 h
Escherichia coli [2] = assay: Antibacterial activity against Escherichia coli ATCC 25922 after 24 hrs by broth microdilution method; type: functional; conditions: ATCC 25922, 24 h
Pseudomonas aeruginosa [3] = assay: Antibacterial activity against Pseudomonas aeruginosa DM23155 after 24 hrs by broth microdilution method; type: functional; conditions: DM23155, 24 h
[4] = Toxicity in New Zealand white rabbit erythrocytes assessed as hemolytic activity after 60 mins; type: cell-based, Oryctolagus cuniculus; conditions: erythrocyte, 1 h
Pseudomonas aeruginosa [5] = assay: Induction of cytoplasmic membrane disruption in Pseudomonas aeruginosa DM23155 assessed as membrane integrity at 1 to 2 times MIC after 1 hr by fluorescence assay; type: functional
[6] = Induction of calcein leakage from DOPE/DOPG artificial membrane at 1:32 ratio of compound to lipid by fluorescence assay; type: physicochemical
Lipopolysaccharide (LPS) [7] = assay: Induction of Escherichia coli 0111:B4 LPS neutralization using p-nitroaniline assessed as concentration required to neutralize 50% after 1 hr by limulus amebocyte lysate assay
Lipopolysaccharide (LPS) [8] = assay: Displacement of dansylcadaverine from Escherichia coli 0111:B4 LPS at 15 to 30 uM after 5 mins by high-throughput fluorescence displacement assay
Pseudomonas aeruginosa [9] = assay: Antibacterial activity against Pseudomonas aeruginosa ATCC 27853 after 24 hrs by broth microdilution method; type: functional; conditions: ATCC 27853, 24 h
Pseudomonas aeruginosa [10] = assay: Antibacterial activity against Pseudomonas aeruginosa DR4877 after 24 hrs by broth microdilution method; type: functional; conditions: DR4877, 24 h
Pseudomonas aeruginosa [11] = assay: Antibacterial activity against Pseudomonas aeruginosa DR18531 after 24 hrs by broth microdilution method; type: functional; conditions: DR18531, 24 h
Pseudomonas aeruginosa [12] = assay: Antibacterial activity against Pseudomonas aeruginosa DM4150R after 24 hrs by broth microdilution method; type: functional
Pseudomonas aeruginosa [13] = assay: Antibacterial activity against Pseudomonas aeruginosa DM23257 after 24 hrs by broth microdilution method; type: functional; conditions: DM23257, 24 h
Pseudomonas aeruginosa [14] = assay: Antibacterial activity against Pseudomonas aeruginosa DU14476 after 24 hrs by broth microdilution method; type: functional; conditions: DU14476, 24 h
Pseudomonas aeruginosa [15] = assay: Antibacterial activity against Pseudomonas aeruginosa ATCC 9027 after 24 hrs by broth microdilution method; type: functional; conditions: ATCC 9027, 24 h
Pseudomonas aeruginosa [16] = assay: Antibacterial activity against Pseudomonas aeruginosa DM23376 after 24 hrs by broth microdilution method; type: functional; conditions: DM23376, 24 h
Pseudomonas aeruginosa [17] = assay: Antibacterial activity against Pseudomonas aeruginosa DR5790 after 24 hrs by broth microdilution method; type: functional; conditions: DR5790, 24 h
Pseudomonas aeruginosa [18] = assay: Induction of cytoplasmic membrane depolarization in Pseudomonas aeruginosa DM23155 at 4 times MIC after 1 hr by fluorescence assay; type: functional, organism-based
Klebsiella pneumoniae [19] = assay: Antibacterial activity against Klebsiella pneumoniae DU31158 after 24 hrs by broth microdilution method; type: functional; conditions: DU31158, 24 h
Klebsiella pneumoniae [20] = assay: Antibacterial activity against Klebsiella pneumoniae DS07955 after 24 hrs by broth microdilution method; type: functional; conditions: DS07955, 24 h
Escherichia coli [21] = assay: Antibacterial activity against Escherichia coli DS17232 after 24 hrs by broth microdilution method; type: functional; conditions: DS17232, 24 h
Klebsiella pneumoniae [22] = assay: Antibacterial activity against Klebsiella pneumoniae DB55301 after 24 hrs by broth microdilution method; type: functional; conditions: DB55301, 24 h
Klebsiella pneumoniae [23] = assay: Antibacterial activity against Klebsiella pneumoniae DS16260 after 24 hrs by broth microdilution method; type: functional; conditions: DS16260, 24 h
Escherichia coli [24] = assay: Antibacterial activity against Escherichia coli DM17528 after 24 hrs by broth microdilution method; type: functional; conditions: DM17528, 24 h

SMILES: CC(=O)N[C@@H](CCCNC(=N)N)C(=O)NCC(=O)N[C@@H](CCCNC(=N)N)C(=O)N[C@@H](CCCCN)C(=O)N[C@H](C(=O)N[C@H](C(=O)N[C@@H](CCCNC(=N)N)C(=O)N[C@@H](CCCNC(=N)N)C(=O)N[C@@H](CCCCN)C(=O)N[C@@H](CCCCN)C(=O)O)C(C)C)C(C)C (Ac-RGRKVVRRKK-OH)
- MIC (Klebsiella pneumoniae [1]): > 80 µM
- MIC (Escherichia coli [2]): 40 µM (≈ 53 µg/mL)
- MIC (Pseudomonas aeruginosa [3]): > 80 µM
- HC10 [4]: > 10000 µg/mL

SMILES: CCCCCC(=O)N[C@@H](CCCNC(=N)N)C(=O)NCC(=O)N[C@@H](CCCNC(=N)N)C(=O)N[C@@H](CCCCN)C(=O)NCC(=O)NCC(=O)N[C@@H](CCCNC(=N)N)C(=O)N[C@@H](CCCNC(=N)N)C(=O)N[C@@H](CCCCN)C(=O)N[C@@H](CCCCN)C(=O)O (Hexanoyl-RGRKGGRRKK-OH)
- MIC (Klebsiella pneumoniae [1]): > 80 µM
- MIC (Escherichia coli [2]): 20 µM (≈ 25.9 µg/mL)
- MIC (Pseudomonas aeruginosa [3]): > 80 µM
- HC10 [4]: > 10000 µg/mL

SMILES: CC(C)[C@H](NC(=O)[C@H](CCCCN)NC(=O)[C@H](CCCNC(=N)N)NC(=O)CNC(=O)[C@@H](N)CCCNC(=N)N)C(=O)N[C@H](C(=O)N[C@@H](CCCNC(=N)N)C(=O)N[C@@H](CCCNC(=N)N)C(=O)N[C@@H](CCCCN)C(=O)N[C@@H](CCCCN)C(=O)O)C(C)C (H-RGRKVVRRKK-OH)
- MIC (Klebsiella pneumoniae [1]): > 80 µM
- MIC (Escherichia coli [2]): 10 µM (≈ 12.8 µg/mL)
- MIC (Pseudomonas aeruginosa [3]): 80 µM (≈ 103 µg/mL)
- HC10 [4]: > 10000 µg/mL

SMILES: CCCC(=O)N[C@@H](CCCNC(=N)N)C(=O)NCC(=O)N[C@@H](CCCNC(=N)N)C(=O)N[C@@H](CCCCN)C(=O)N[C@H](C(=O)N[C@H](C(=O)N[C@@H](CCCNC(=N)N)C(=O)N[C@@H](CCCNC(=N)N)C(=O)NCCCC[C@H](NC(=O)[C@H](CCCNC(=N)N)NC(=O)[C@H](CCCNC(=N)N)NC(=O)[C@@H](NC(=O)[C@@H](NC(=O)[C@H](CCCCN)NC(=O)[C@H](CCCNC(=N)N)NC(=O)CNC(=O)[C@H](CCCNC(=N)N)NC(=O)CCC)C(C)C)C(C)C)C(=O)N[C@@H](CCCCN)C(=O)O)C(C)C)C(C)C (I: Butyryl-RGRKVVRRKK-OH / II: Butyryl-RGRKVVRR; amide I:9-II:C)
- Activity (Pseudomonas aeruginosa [5]): >80%
- Activity [6]: Active
- MIC (Klebsiella pneumoniae [1]): 6 µM (≈ 14.6 µg/mL)
- EC50 (Lipopolysaccharide (LPS) [7]): > 1000 µM
- MIC (Escherichia coli [2]): 3 µM (≈ 7.29 µg/mL)
- Activity (Lipopolysaccharide (LPS) [8]): 93.4%
- MIC (Pseudomonas aeruginosa [3]): 10 µM (≈ 24.3 µg/mL)
- HC10 [4]: > 10000 µg/mL

SMILES: COc1c(N2CCNC(C)C2)c(F)cc2c(=O)c(C(=O)O)cn(C3CC3)c12 (centres undefined) [GATIFLOXACIN]
- MIC (Pseudomonas aeruginosa [9]): 4 µM (≈ 1.5 µg/mL)
- MIC (Pseudomonas aeruginosa [10]): 32 µM (≈ 12 µg/mL)
- MIC (Pseudomonas aeruginosa [11]): 8 µM (≈ 3 µg/mL)
- MIC (Pseudomonas aeruginosa [12]): 2 µM (≈ 0.751 µg/mL)
- MIC (Pseudomonas aeruginosa [13]): 2 µM (≈ 0.751 µg/mL)
- MIC (Pseudomonas aeruginosa [14]): 64 µM (≈ 24 µg/mL)
- MIC (Pseudomonas aeruginosa [15]): 2 µM (≈ 0.751 µg/mL)
- MIC (Pseudomonas aeruginosa [16]): 4 µM (≈ 1.5 µg/mL)
- MIC (Pseudomonas aeruginosa [17]): 64 µM (≈ 24 µg/mL)

SMILES: CCCCCCCC(=O)N[C@@H](CCCNC(=N)N)C(=O)NCC(=O)N[C@@H](CCCNC(=N)N)C(=O)N[C@@H](CCCCN)C(=O)NCC(=O)NCC(=O)N[C@@H](CCCNC(=N)N)C(=O)N[C@@H](CCCNC(=N)N)C(=O)N[C@@H](CCCCN)C(=O)N[C@@H](CCCCN)C(=O)O (Octanoyl-RGRKGGRRKK-OH)
- MIC (Klebsiella pneumoniae [1]): 40 µM (≈ 53 µg/mL)
- Activity (Pseudomonas aeruginosa [18]): Active
- MIC (Escherichia coli [2]): 6 µM (≈ 7.95 µg/mL)
- MIC (Pseudomonas aeruginosa [3]): 10 µM (≈ 13.2 µg/mL)
- HC10 [4]: > 10000 µg/mL

SMILES: CCCCCCCCCCCC(=O)N[C@@H](CCCNC(=N)N)C(=O)NCC(=O)N[C@@H](CCCNC(=N)N)C(=O)N[C@@H](CCCCN)C(=O)NCC(=O)NCC(=O)N[C@@H](CCCNC(=N)N)C(=O)N[C@@H](CCCNC(=N)N)C(=O)N[C@@H](CCCCN)C(=O)N[C@@H](CCCCN)C(=O)O (Lauroyl-RGRKGGRRKK-OH)
- MIC (Klebsiella pneumoniae [1]): 10 µM (≈ 13.8 µg/mL)
- MIC (Escherichia coli [2]): 6 µM (≈ 8.28 µg/mL)
- MIC (Pseudomonas aeruginosa [3]): 6 µM (≈ 8.28 µg/mL)
- HC10 [4]: 8602 µg/mL

SMILES: C[C@H]1COc2c(N3CCN(C)CC3)c(F)cc3c(=O)c(C(=O)O)cn1c23 [LEVOFLOXACIN]
- MIC (Klebsiella pneumoniae [19]): 0.03 µM (≈ 0.0108 µg/mL)
- MIC (Klebsiella pneumoniae [20]): > 100 µM
- MIC (Escherichia coli [21]): 20 µM (≈ 7.23 µg/mL)
- MIC (Klebsiella pneumoniae [22]): 80 µM (≈ 28.9 µg/mL)
- MIC (Klebsiella pneumoniae [23]): 10 µM (≈ 3.61 µg/mL)
- MIC (Escherichia coli [24]): 80 µM (≈ 28.9 µg/mL)
